From publication PMC9511441, “Semisynthetic teicoplanin derivatives with dual antimicrobial activity against SARS-CoV-2 and multiresistant bacteria” (Scientific Reports, 2022)
Converted amounts (≈) assume the structure as drawn. Where two headings read alike, the source gives them in different places.

How the values were obtained:
SARS-CoV-2 = test: microbe, parasite or virus in culture; type: cell-based; conditions: for EC50: Severe acute respiratory syndrome coronavirus 2, Vero C1008, 72 h, Vero E6 cells, three days, XTT, read-out: EC50, CPE reduction, SARS-CoV-2 in Vero E6 cells
[1] = Cytotoxicity in mock-infected VeroE6 cells (XTT); type: cell-based, African green monkey; conditions: African green monkey; for CC50: mock-infected Vero E6 cells, three days, XTT
[2] = target: T1, human recombinant cathepsin L (Homo sapiens, UniProt P07711); test: biochemical; type: biochemical
T1 construct: made in house; host or cells: Escherichia coli
T1 sequence (P07711 114-333): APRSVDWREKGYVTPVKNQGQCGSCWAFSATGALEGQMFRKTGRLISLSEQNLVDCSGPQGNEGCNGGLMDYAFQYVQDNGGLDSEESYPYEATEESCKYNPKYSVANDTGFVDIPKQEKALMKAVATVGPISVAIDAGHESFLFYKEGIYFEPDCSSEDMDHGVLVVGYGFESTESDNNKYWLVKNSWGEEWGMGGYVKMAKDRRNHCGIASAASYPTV
Method: Cathepsin L inhibition was assessed as reported. Briefly, human recombinant cathepsin L was expressed in Escherichia coli[33]. Enzymatic activity was determined in 100 mM acetate buffer (pH 5.5) containing 0.1% PEG 8000, 5 mM cysteine and 1.5 mM EDTA. The enzyme was first activated in assay buffer for 5 min at 37 °C, after which it was added to the wells of a black microplate containing the Z-Phe-Arg-AMC substrate (Bachem) and compounds. Formation of the fluorescent cleavage product was monitored for 50 min at 37 °C, using a Tecan Infinit M1000 spectrofluorimeter set at 460 nm emission and 380 nm excitation wavelength. All assay mixtures contained 5% (v/v) DMSO and 0.01% Triton X-100 to prevent false-positive inhibition due to formation of compound aggregates. All measurements were performed in triplicate and repeated twice. The relative inhibition was calculated using the equation: Relative inhibition (%) = 100(1 − vi/vo), where vi and vo designate the reaction velocities in the presence and absence of inhibitor, respectively. IC50 values were determined from nine data points at different inhibitor concentrations.

[3] = tested on: Klebsiella pneumoniae ST258 clone K 160/09; test: MIC against Gram-negative strain; conditions: Klebsiella pneumoniae
[4] = tested on: Pseudomonas aeruginosa ATCC 27853; test: MIC against Gram-negative strain; conditions: ATCC27853
[5] = tested on: Acinetobacter baumannii ATCC BAA1605; test: MIC against Gram-negative strain; conditions: Acinetobacter baumannii, ATCCBAA1605
[6] = tested on: Escherichia coli ATCC 25218; test: MIC against Gram-negative strain; conditions: ATCC25218
VeroE6 cells = test: Cytotoxicity in mock-infected VeroE6 cells (XTT); type: cell-based, African green monkey; conditions: mock-infected Vero E6 cells, three days, XTT
HEL cells = test: Cytotoxicity in mock-infected HEL cells (MTS); type: cell-based, human; conditions: mock-infected HEL cells, MTS, mean of 2–3 tests
SARS-CoV-2 pseudovirus [7] = test: microbe, parasite or virus in culture; type: cell-based; conditions: cathepsin-dependent endosomal pathway
SARS-CoV-2 pseudovirus [8] = test: microbe, parasite or virus in culture; type: cell-based; conditions: A549-AT cells, TMPRSS2-mediated uptake
Calu-3 cells = test: Cytotoxicity in mock-infected Calu-3 cells (XTT); conditions: read-out: CC50, Calu-3 cells, three days
E. faecalis = test: MIC, broth microdilution; type: cell-based; conditions: Enterococcus faecalis
Text: (§1) We determined the minimal inhibitory concentrations (MIC) of the teicoplanin conjugates for a large panel of Gram-positive bacterial strains, using vancomycin, unmodified teicoplanin, dalbavancin and oritavancin as reference compounds. […] The bacterial strains (see Suppl. Table S5 for all details) were selected to achieve maximum diversity of multidrug-resistance and include strains with known mechanisms of resistance to glycopeptides in clinical use. The S. epidermidis and S. haemolyticus strains resistant to dalbavancin and oritavancin were obtained in vitro from clinical isolates sensitive to the glycopeptide antibiotics.

S. aureus = test: MIC, broth microdilution; type: cell-based; conditions: Staphylococcus aureus
Text: as §1

S. haemolyticus = test: MIC, broth microdilution; type: cell-based; conditions: Staphylococcus haemolyticus
Text: as §1

S.pyogenes = test: MIC, broth microdilution; type: cell-based; conditions: Streptococcus pyogenes
Text: as §1

E. faecium = test: microbe, parasite or virus in culture; type: cell-based; conditions: Enterococcus faecium
Text: as §1

S. epidermidis = test: microbe, parasite or virus in culture; type: cell-based; conditions: Staphylococcus epidermidis
Text: as §1

[9] = read-out: Cathepsin L IC50, pH 5.5, Z-Phe-Arg-AMC substrate

For N=C(N)NCCSCCCOc1cc(C(=O)OCc2ccccc2)cc(OCCCSCCNC(=N)N)c1OCCCSCCNC(=N)N [Compound 24], the EC50 (SARS-CoV-2) was greater than 100 µM, the “Reduction of the CPE of SARS-CoV-2 in VeroE6 cells (in words)” value (from here on “Reduction”) (SARS-CoV-2) was “not active” and the CC50 at 3 days [1] was 33.2 µM. It also gave an IC50 [2] of 18 ± 1 µM, an MIC [3] of 128 µg/mL (≈ 173 µM) and an MIC [4] of 25.6 µg/mL (≈ 34.7 µM). For the same molecule, the MIC [5] was 25.6 µg/mL (≈ 34.7 µM) and the MIC [6] was 3.2 µg/mL (≈ 4.34 µM).
With OCCCC(F)(F)C(F)(F)C(F)(F)C(F)(F)C(F)(F)C(F)(F)F [Compound 9] the EC50 (SARS-CoV-2) was greater than 100 µM, the “Reduction” value (SARS-CoV-2) was “not active” and the CC50 [1] was greater than 100 µM.
With OCCCC(F)(F)C(F)(F)C(F)(F)C(F)(F)C(F)(F)C(F)(F)C(F)(F)C(F)(F)F [Compound 13] the EC50 (SARS-CoV-2) was greater than 100 µM, the “Reduction” value (SARS-CoV-2) was “not active” and the CC50 [1] was greater than 100 µM.
In the case of CCCCCCCCOC1C(OC)OC(COCCOCCOCCOCCOCc2cn(C3C(=O)NC4Cc5ccc(c(Cl)c5)Oc5cc6cc(c5O)Oc5ccc(cc5Cl)C(OC5OC(CO)C(O)C(O)C5NC(C)=O)C5NC(=O)C(NC(=O)C6NC(=O)C(NC4=O)c4cc(O)cc(c4)Oc4cc3ccc4O)c3ccc(O)c(c3)-c3c(O)cc(O)cc3C(C(=O)O)NC5=O)nn2)C(O)C1OCCCCCCCC (stereo not drawn) [Compound 1], the CC50 (VeroE6 cells) is reported as greater than 100 µM, the CC50 (HEL cells) is reported as greater than 100 µM and the “Inhibition of pseudovirus entry in Vero cells (in words)” value (SARS-CoV-2 pseudovirus [7]) is reported as “highly effective”. The “Inhibition of pseudovirus entry in A549-AT cells (in words)” value (SARS-CoV-2 pseudovirus [8]) was “active, though less potent”, the IC50 [2, 9] was 49 ± 1 µM and the CC50 (Calu-3 cells) was 75 ± 9 µM.
For CC(=O)N[C@H]1[C@H](O[C@@H]2c3ccc(c(Cl)c3)Oc3cc4cc(c3O)Oc3ccc(cc3Cl)C[C@H]3NC(=O)[C@H](NC(=O)CCC(F)(F)C(F)(F)C(F)(F)C(F)(F)C(F)(F)C(F)(F)C(F)(F)C(F)(F)F)c5ccc(O)c(c5)Oc5cc(O)cc(c5)[C@H](NC3=O)C(=O)N[C@H]4C(=O)N[C@H]3C(=O)N[C@@H]2C(=O)N[C@H](C(=O)O)c2cc(O)cc(O)c2-c2cc3ccc2O)O[C@H](CO)[C@@H](O)[C@@H]1O [Compound 5], the CC50 (VeroE6 cells) was greater than 100 µM, the CC50 (HEL cells) was greater than 100 µM and the IC50 [2, 9] was 52 ± 1 µM. For the same molecule, the MIC (E. faecalis; read-out: Average MIC value, E. faecalis VAN^R,TEI^R/VanA, 1 strain) was greater than 8 µg/mL, the MIC (E. faecalis; read-out: Average MIC value, E. faecalis VAN^S, TEI^S, 2 strains) was 0.25 µg/mL (≈ 0.133 µM) and the MIC (E. faecalis; read-out: MIC value, E.faecalis JH2-2) was 0.25 µg/mL (≈ 0.133 µM). It also gave an MIC (E. faecalis; read-out: MIC value, E.faecalis OG1RF) of 0.25 µg/mL (≈ 0.133 µM), an MIC (E. faecalis; read-out: MIC value, E.faecalis V583, VAN,TEI/VanA) greater than 8 µg/mL and an MIC (S. aureus; ATCC 29213 / MSSA, read-out: MIC value, S. aureus ATCC29213, MSSA) of 1 µg/mL (≈ 0.533 µM). It also gave an MIC (S. aureus; MRSA / USA300, read-out: MIC value, S. aureus USA300, CA-MRSA) of 4 µg/mL (≈ 2.13 µM), an MIC (S. aureus; MRSA, read-out: Average MIC value, S. aureus CA-MRSA, 1 strain) of 4 µg/mL (≈ 2.13 µM) and an MIC (S. aureus; MRSA, read-out: Average MIC value, S. aureus MRSA, 7 strains) of 2.57 µg/mL (≈ 1.37 µM). It also gave an MIC (S. aureus; MRSA, read-out: MIC value, S. aureus 73OL, MRSA) of 2 µg/mL (≈ 1.07 µM), an MIC (S. aureus; MRSA, read-out: MIC value, S. aureus 214OL, MRSA) of 4 µg/mL (≈ 2.13 µM) and an MIC (S. aureus; MRSA, read-out: MIC value, S. aureus 1041OL, MRSA) of 4 µg/mL (≈ 2.13 µM). It also gave an MIC (S. aureus; MRSA, read-out: MIC value, S. aureus A6918, MRSA) of 2 µg/mL (≈ 1.07 µM), an MIC (S. aureus; MRSA, read-out: MIC value, S. aureus A6919, MRSA) of 2 µg/mL (≈ 1.07 µM) and an MIC (S. aureus; MRSA, read-out: MIC value, S. aureus Mu50, MRSA) of 2 µg/mL (≈ 1.07 µM). The MIC (S. aureus; MRSA, read-out: MIC value, S. aureus N315, MRSA) was 2 µg/mL (≈ 1.07 µM), the MIC (S. aureus; MSSA / NEWMAN, read-out: MIC value, S. aureus Newman, MSSA) was 2 µg/mL (≈ 1.07 µM) and the MIC (S. aureus; MSSA, read-out: Average MIC value, S. aureus MSSA, 4 strains) was 1.75 µg/mL (≈ 0.933 µM). It also gave an MIC (S. aureus; MSSA, read-out: MIC value, S. aureus MSSA476, MSSA) of 2 µg/mL (≈ 1.07 µM), an MIC (S. aureus; MSSA, read-out: MIC value, S. aureus SA564, MSSA) of 2 µg/mL (≈ 1.07 µM) and an MIC (S. haemolyticus; S. haemolyticus mecA, 6 strains, read-out: Average MIC value) of 7 µg/mL (≈ 3.73 µM). For the same molecule, the MIC (S. haemolyticus; S.haemolyticus DALB_R1, mecA, read-out: MIC value) was 8 µg/mL (≈ 4.26 µM), the MIC (S. haemolyticus; S.haemolyticus DALB_R2, mecA, read-out: MIC value) was 8 µg/mL (≈ 4.26 µM) and the MIC (S. haemolyticus; S.haemolyticus DALB_R3, mecA, read-out: MIC value) was 8 µg/mL (≈ 4.26 µM). The MIC (S. haemolyticus; S.haemolyticus DALB_R4, mecA, read-out: MIC value) was 8 µg/mL (≈ 4.26 µM), the MIC (S. haemolyticus; S.haemolyticus DALB_R5, mecA, read-out: MIC value) was 2 µg/mL (≈ 1.07 µM) and the MIC (S. haemolyticus; S.haemolyticus ORI_R1, mecA, read-out: MIC value) was 8 µg/mL (≈ 4.26 µM). For the same molecule, the MIC (S.pyogenes; read-out: MIC value, S.pyogenes H232) was 0.25 µg/mL (≈ 0.133 µM), the MIC (S.pyogenes; read-out: MIC value, S.pyogenes H550) was 0.25 µg/mL (≈ 0.133 µM) and the MIC (S.pyogenes; read-out: MIC value, S.pyogenes H578) was 0.25 µg/mL (≈ 0.133 µM). For the same molecule, the MIC (E. faecium; read-out: Average MIC value, E. faecium VAN^R,TEI^R/VanA, 8 strains) was greater than 8 µg/mL, the MIC (E. faecium; read-out: Average MIC value, E. faecium VAN^S, TEI^S, 1 strain) was 0.25 µg/mL (≈ 0.133 µM) and the MIC (E. faecium; read-out: MIC value, E.faecium E335, VAN,TEI,LNZ/VanA) was greater than 8 µg/mL. It also gave an MIC (E. faecium; read-out: MIC value, E.faecium E355, VAN,TEI,LNZ/VanA) greater than 8 µg/mL, an MIC (E. faecium; read-out: MIC value, E.faecium E832, VAN,TEI,LNZ/VanA) greater than 8 µg/mL and an MIC (E. faecium; read-out: MIC value, E.faecium E854, VAN,TEI,LNZ/VanA) greater than 8 µg/mL. For the same molecule, the MIC (E. faecium; read-out: MIC value, E.faecium E859, VAN,TEI,LNZ/VanA) was greater than 8 µg/mL, the MIC (E. faecium; read-out: MIC value, E.faecium E1114, VAN,TEI,LNZ/VanA) was greater than 8 µg/mL and the MIC (E. faecium; read-out: MIC value, E.faecium E1131, VAN,TEI,LNZ/VanA) was greater than 8 µg/mL. For the same molecule, the MIC (E. faecium; read-out: MIC value, E.faecium E1132, VAN,TEI,LNZ/VanA) was greater than 8 µg/mL, the MIC (E. faecium; read-out: MIC value, E.faecium TX0016) was 0.25 µg/mL (≈ 0.133 µM) and the MIC (S. epidermidis; read-out: Average MIC value, S. epidermidis mecA, 6 strains) was 1.4 µg/mL (≈ 0.746 µM). The MIC (S. epidermidis; read-out: MIC value, S.epidermidis ORI_R1, mecA) was 4 µg/mL (≈ 2.13 µM), the MIC (S. epidermidis; read-out: MIC value, S.epidermidis ORI_R2, mecA) was 1 µg/mL (≈ 0.533 µM) and the MIC (S. epidermidis; read-out: MIC value, S.epidermidis ORI_R3, mecA) was 2 µg/mL (≈ 1.07 µM). It also gave an MIC (S. epidermidis; read-out: MIC value, S.epidermidis ORI_R4, mecA) of 0.5 µg/mL (≈ 0.266 µM), an MIC (S. epidermidis; read-out: MIC value, S.epidermidis TEI_R1, mecA) of 0.5 µg/mL (≈ 0.266 µM) and an MIC (S. epidermidis; read-out: MIC value, S.epidermidis TEI_R2, mecA) of 0.5 µg/mL (≈ 0.266 µM). It also gave a CC50 (Calu-3 cells) greater than 100 µM.
